In US9492471B2, “Methods of treating a disease or disorder associated with Bruton'S Tyrosine Kinase” (Celgene Avilomics Research, Inc., priority 2013, dated 2016):
Where two headings read alike, the source gives them in different places.

How the values were obtained:
Experiment in all cases: HotSpot kinase profiling
Assay type in all cases: biochemical
ALK1/ACVRL1 = target: T1, ALK1/ACVRL1 (Homo sapiens, UniProt P37023)
T1 construct: purchased Reaction Biology Corp
How it was run: (§1)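 P81 filtration radiometric readout; 2 h incubation at room temperature; 0.1% phosphoric acid wash; DMSO negative control; % inhibition, mean of replicate runs.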

TSSK3/STK22C = target: T2, TSSK3/STK22C (Homo sapiens, UniProt Q96PN8)
T2 construct: purchased Reaction Biology Corp
T2 sequence (Q96PN8 1-268): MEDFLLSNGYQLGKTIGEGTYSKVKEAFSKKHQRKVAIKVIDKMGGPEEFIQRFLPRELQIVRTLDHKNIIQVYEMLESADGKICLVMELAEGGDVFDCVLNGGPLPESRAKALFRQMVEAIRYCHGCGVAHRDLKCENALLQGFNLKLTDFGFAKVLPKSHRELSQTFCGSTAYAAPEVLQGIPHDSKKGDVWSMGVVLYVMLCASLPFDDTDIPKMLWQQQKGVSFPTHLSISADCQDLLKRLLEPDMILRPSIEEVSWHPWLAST
How it was run: as §1

DCAMKL1 = target: T3, DCAMKL1 (Homo sapiens, UniProt O15075)
T3 construct: purchased Reaction Biology Corp
T3 sequence (O15075 1-740): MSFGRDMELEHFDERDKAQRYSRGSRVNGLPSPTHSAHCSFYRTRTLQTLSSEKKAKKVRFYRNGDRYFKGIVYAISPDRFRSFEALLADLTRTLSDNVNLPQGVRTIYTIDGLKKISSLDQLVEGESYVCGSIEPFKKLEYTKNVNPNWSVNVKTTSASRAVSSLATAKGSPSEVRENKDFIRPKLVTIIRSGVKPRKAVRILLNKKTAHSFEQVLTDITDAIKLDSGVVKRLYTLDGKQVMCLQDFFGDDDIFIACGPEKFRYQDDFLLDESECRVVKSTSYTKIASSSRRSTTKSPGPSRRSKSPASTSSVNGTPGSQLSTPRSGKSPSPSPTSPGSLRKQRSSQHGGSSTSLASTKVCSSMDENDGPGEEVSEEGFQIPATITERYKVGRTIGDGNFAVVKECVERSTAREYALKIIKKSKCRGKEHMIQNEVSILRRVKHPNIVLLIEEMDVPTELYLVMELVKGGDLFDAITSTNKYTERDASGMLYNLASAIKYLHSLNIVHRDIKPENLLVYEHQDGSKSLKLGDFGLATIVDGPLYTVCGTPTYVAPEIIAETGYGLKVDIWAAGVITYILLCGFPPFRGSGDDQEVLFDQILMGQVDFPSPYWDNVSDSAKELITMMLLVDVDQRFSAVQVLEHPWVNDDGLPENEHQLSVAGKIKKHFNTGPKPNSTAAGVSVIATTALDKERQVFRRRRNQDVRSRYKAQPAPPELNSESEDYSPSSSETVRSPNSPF
How it was run: as §1

PLK3 = target: T4, PLK3 (Homo sapiens, UniProt Q9H4B4)
T4 construct: purchased Reaction Biology Corp
How it was run: as §1

BRSK1 = target: T5, BRSK1 (Homo sapiens, UniProt Q8TDC3)
T5 construct: purchased Reaction Biology Corp
T5 sequence (Q8TDC3 1-778): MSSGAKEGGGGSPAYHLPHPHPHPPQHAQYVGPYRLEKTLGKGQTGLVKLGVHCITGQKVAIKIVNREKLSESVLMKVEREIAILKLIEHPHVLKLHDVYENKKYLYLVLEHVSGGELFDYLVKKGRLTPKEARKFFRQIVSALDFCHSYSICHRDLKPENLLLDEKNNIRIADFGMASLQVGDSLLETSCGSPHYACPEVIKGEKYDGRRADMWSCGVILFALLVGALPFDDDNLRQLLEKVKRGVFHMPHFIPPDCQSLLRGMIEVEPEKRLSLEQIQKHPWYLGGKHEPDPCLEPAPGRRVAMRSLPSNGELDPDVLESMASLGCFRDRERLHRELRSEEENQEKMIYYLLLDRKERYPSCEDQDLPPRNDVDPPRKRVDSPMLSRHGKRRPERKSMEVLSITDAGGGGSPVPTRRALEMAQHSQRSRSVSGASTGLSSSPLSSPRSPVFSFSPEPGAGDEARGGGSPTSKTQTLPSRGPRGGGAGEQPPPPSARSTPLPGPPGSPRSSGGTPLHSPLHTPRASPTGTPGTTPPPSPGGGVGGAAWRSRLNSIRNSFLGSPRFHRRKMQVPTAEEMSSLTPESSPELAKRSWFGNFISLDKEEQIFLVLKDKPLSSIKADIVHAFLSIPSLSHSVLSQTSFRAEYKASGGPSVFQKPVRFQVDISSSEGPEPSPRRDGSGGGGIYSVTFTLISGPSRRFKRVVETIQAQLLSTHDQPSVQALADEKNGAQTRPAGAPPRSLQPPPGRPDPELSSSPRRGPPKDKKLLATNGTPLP
How it was run: as §1

[1] = read-out: % Enzyme Activity (relative to DMSO controls) Run 1
[2] = read-out: % Enzyme Activity (relative to DMSO controls) Run 2

T4 sequence (Q9H4B4 whole entry): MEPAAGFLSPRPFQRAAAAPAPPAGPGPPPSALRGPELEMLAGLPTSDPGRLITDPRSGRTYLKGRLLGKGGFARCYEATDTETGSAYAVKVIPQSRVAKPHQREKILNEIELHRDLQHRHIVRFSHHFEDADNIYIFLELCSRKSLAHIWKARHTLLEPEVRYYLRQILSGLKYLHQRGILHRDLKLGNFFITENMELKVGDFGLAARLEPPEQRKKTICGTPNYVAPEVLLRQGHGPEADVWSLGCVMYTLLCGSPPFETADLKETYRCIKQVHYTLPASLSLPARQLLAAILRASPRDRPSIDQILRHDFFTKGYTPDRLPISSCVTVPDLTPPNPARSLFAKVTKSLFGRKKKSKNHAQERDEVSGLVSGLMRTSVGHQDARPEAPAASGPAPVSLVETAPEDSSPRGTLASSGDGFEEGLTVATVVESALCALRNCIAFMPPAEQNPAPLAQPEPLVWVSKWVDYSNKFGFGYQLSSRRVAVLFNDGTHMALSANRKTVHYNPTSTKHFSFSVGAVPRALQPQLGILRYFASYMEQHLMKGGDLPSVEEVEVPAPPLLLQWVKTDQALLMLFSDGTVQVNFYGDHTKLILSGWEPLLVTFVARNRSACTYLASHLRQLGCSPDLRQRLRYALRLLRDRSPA
T1 sequence (P37023 22-503): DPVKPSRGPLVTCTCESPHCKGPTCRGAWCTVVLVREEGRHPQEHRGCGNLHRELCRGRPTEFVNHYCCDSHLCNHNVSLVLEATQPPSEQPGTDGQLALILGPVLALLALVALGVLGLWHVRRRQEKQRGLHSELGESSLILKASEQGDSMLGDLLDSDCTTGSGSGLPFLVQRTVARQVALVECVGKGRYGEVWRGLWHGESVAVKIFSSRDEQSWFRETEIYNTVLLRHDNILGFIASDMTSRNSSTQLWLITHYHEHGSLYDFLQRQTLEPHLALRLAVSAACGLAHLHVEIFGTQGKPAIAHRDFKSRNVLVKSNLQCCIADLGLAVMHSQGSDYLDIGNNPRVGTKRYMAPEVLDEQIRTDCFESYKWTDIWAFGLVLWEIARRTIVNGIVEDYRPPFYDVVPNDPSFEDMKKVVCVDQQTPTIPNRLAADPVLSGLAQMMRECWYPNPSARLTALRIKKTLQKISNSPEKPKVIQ

SMILES: C=CC(=O)Nc1cccc(Nc2nc(Nc3ccc(OCCOC)c(F)c3)ncc2F)c1 [Compound 2]
- inhibition at 3 µM (ALK1/ACVRL1): -24.4%
- remaining activity at 3 µM (ALK1/ACVRL1; [1]): 125%
- remaining activity at 3 µM (ALK1/ACVRL1; [2]): 124%
- inhibition at 3 µM (TSSK3/STK22C): -32.6%
- remaining activity at 3 µM (TSSK3/STK22C; [1]): 133%
- remaining activity at 3 µM (TSSK3/STK22C; [2]): 133%
- inhibition at 3 µM (DCAMKL1): 2.02%
- remaining activity at 3 µM (DCAMKL1; [1]): 98.4%
- remaining activity at 3 µM (DCAMKL1; [2]): 97.5%
- inhibition at 3 µM (PLK3): 1.28%
- remaining activity at 3 µM (PLK3; [1]): 97%
- remaining activity at 3 µM (PLK3; [2]): 100%
- inhibition at 3 µM (BRSK1): 11.8%
- remaining activity at 3 µM (BRSK1; [1]): 87.1%
- remaining activity at 3 µM (BRSK1; [2]): 89.4%
